Biological target: T1, human TREM2 (Homo sapiens, UniProt Q9NZC2)
T1 construct: expressed in transfected cells; host or cells: HEK293T
Assay: TREM2 agonist potency by cellular phosphorylation of Syk (AlphaLisa) in HEK293T-hTREM2 cells
Assay type: cell-based
Procedure, shortened: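 Agonist EC50 from a variable-slope four-parameter fit of % activation, based on AlphaLisa phospho-Syk levels in lysates. Cells: HEK293T-hTREM2 (with DAP12), treated 45 min at room temperature with compound in assay buffer.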

[1] = HEK293 cells expressing human TREM2 and DAP12, Table D-2
[2] = HEK293 cells expressing human TREM2 and DAP12, Table D

T1 sequence (Q9NZC2 19-230): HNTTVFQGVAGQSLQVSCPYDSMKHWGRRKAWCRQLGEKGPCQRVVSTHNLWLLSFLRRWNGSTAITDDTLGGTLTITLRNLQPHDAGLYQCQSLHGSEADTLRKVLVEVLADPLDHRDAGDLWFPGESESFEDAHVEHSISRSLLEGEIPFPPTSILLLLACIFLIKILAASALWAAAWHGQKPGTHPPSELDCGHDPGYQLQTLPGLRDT
T1 sequence (O43914 22-113 partner): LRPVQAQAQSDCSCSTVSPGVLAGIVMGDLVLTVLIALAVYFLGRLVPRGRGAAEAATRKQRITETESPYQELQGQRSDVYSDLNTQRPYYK

Row | EC50 [1] [nM] | EC50 [2] [nM] | SMILES
1 | 50 to 500 | – | Cc1nc2nc([C@H]3CCO[C@@H](c4cnn(C5CC5)c4)C3)nc(-c3ccc(C4CC4)cc3F)c2nc1C [Example I-1187, 2-((2R,4S)-2-(1-cyclopropyl-1H-pyrazol-4-yl)tetrahydro-2H-pyran-4-yl)-4-(4-cyclopropyl-2-fluorophenyl)-6,7-dimethylpteridine]
2 | 50 to 500 | – | Cc1nc2nc([C@H]3CCO[C@H](c4cnc(C5CC5)o4)C3)nc(-c3ccc(F)cc3F)c2nc1C [Example I-1698, 2-cyclopropyl-5-[(2S,4S)-4-[4-(2,4-difluorophenyl)-6,7-dimethyl-pteridin-2-yl]tetrahydropyran-2-yl]oxazole]
3 | 50 to 500 | – | COCCn1cc([C@H]2C[C@@H](c3nc(-c4ccc(F)cc4F)c4nc(C)c(C)nc4n3)CCO2)cn1 (stereo in doubt) [Example I-1658, 4-(2,4-difluorophenyl)-2-(2-(1-(2-methoxyethyl)-1H-pyrazol-4-yl)tetrahydro-2H-pyran-4-yl)-6,7-dimethylpteridine]
4 | < 50 | – | Cc1nc2nc(N3C[C@@H](C)O[C@@H](c4cnn(C5CC5)c4)C3)nc([C@H]3C[C@H](C(F)(F)F)C3)c2nc1C [Example I-1365, (2S,6R)-2-(1-cyclopropylpyrazol-4-yl)-4-[6,7-dimethyl-4-[3-(trifluoromethyl)cyclobutyl]pteridin-2-yl]-6-methyl-morpholine]
5 | < 50 | – | Cc1nc2nc([C@H]3CCO[C@@H](c4cnn(C5CC5)c4)C3)nc(-c3ccc4c(c3)CCC4)c2nc1C (stereo in doubt) [Example I-1170, 4-indan-5-yl-6,7-dimethyl-2-[(2R,4S)-2-(1-cyclopropylpyrazol-4-yl)tetrahydropyran-4-yl]pteridine]
6 | < 50 | – | Cc1nc2nc(N3C[C@@H](C4CC4)O[C@@H](c4cnn(C(F)F)c4)C3)nc(-c3ccc(C(F)(F)F)cc3F)c2nc1C [Example I-1711, (2R,6S)-2-cyclopropyl-6-[1-(difluoromethyl)pyrazol-4-yl]-4-[4-[2-fluoro-4-(trifluoromethyl)phenyl]-6,7-dimethyl-pteridin-2-yl]morpholine]
7 | < 50 | – | COc1nc2c(-c3ccc(Cl)cc3F)nc([C@@H]3CCO[C@H](c4cnn(C5CC5)c4)C3)nc2nc1C (racemic) [Example I-1221, 4-(4-chloro-2-fluoro-phenyl) −6-methoxy-7-methyl-2-[rac-(2S,4R)-2-(1-cyclopropylpyrazol-4-yl)tetrahydropyran-4-yl]pteridine]
8 | < 50 | – | Cc1nc2nc(N3C[C@@H](C)O[C@@H](c4cnn(C5CC5)c4)C3)nc([C@H]3C[C@H](OC(F)(F)F)C3)c2nc1C [Example I-1729, (2S,6R)-2-(1-cyclopropylpyrazol-4-yl)-4-[6,7-dimethyl-4-[3-(trifluoromethoxy)cyclobutyl]pteridin-2-yl]-6-methyl-morpholine]
9 | < 50 | – | Cc1nc2cc([C@H]3CCO[C@@H](c4cnn(C5CC5)c4)C3)nc(-c3ccc(F)cc3F)c2nc1CF [Example I-1456, 7-((2R,4S)-2-(1-cyclopropyl-1H-pyrazol-4-yl)tetrahydro-2H-pyran-4-yl)-5-(2,4-difluorophenyl)-3-(fluoromethyl)-2-methylpyrido[3,4-b]pyrazine]
10 | 500 to 3000 | – | COC1(c2nc(-c3ccc(Cl)cc3F)c3nc(C)c(C)nc3n2)CCO[C@@H](c2cnn(C3CC3)c2)C1 (stereo partly drawn) [Example I-1210, 4-(4-chloro-2-fluorophenyl)-2-((2R)-2-(1-cyclopropyl-1H-pyrazol-4-yl)-4-methoxytetrahydro-2H-pyran-4-yl)-6,7-dimethylpteridine]
11 | < 50 | – | Cc1nc2nc(N3C[C@@H](c4cnn(C5CC5)c4)O[C@@H](C(F)F)C3)nc(-c3ccc(F)cc3F)c2nc1C (single isomer, unassigned) [Example I-1524]
12 | 500 to 3000 | – | Cc1nc2nc([C@H]3CC(CO)O[C@@H](c4cnn(C5CC5)c4)C3)nc(-c3ccc(F)cc3F)c2nc1C (stereo in doubt) [Example I-1624, [(2S,4R,6R)-6-(1-cyclopropylpyrazol-4-yl)-4-[4-(2,4-difluorophenyl)-6,7-dimethyl-pteridin-2-yl]tetrahydropyran-2-yl]methanol]

Further lines, the compound ahead of its results:

Row | SMILES | EC50 [1] [nM] | EC50 [2] [nM]
13 | [2H]C1([2H])C[C@@H](c2nc(-c3ccc(Cl)cc3F)c3nc(C)c(C)nc3n2)C[C@@]([2H])(c2cnn(C3CC3)c2)O1 [Example 193, 4-(4-chloro-2-fluorophenyl)-2-((2S,4R)-2-(1-cyclopropyl-1H-pyrazol-4-yl)tetrahydro-2H-pyran-4-yl-2,6,6-d3)-6,7-dimethylpteridine] | – | 50 to 500
14 | [2H]C([2H])([2H])c1nc2nc([C@H]3CCO[C@@H](c4ccnc(C)c4)C3)nc(-c3ccc(Cl)c(F)c3F)c2nc1C([2H])([2H])[2H] [Example 137, 4-(4-chloro-2,3-difluorophenyl)-6,7-bis(methyl-d3)-2-((2R,4S)-2-(2-methylpyridin-4-yl)tetrahydro-2H-pyran-4-yl)pteridine] | – | < 50
15 | Cc1cnc2c(-c3ccc(Cl)cc3F)nc(N3C[C@@H](C)O[C@@H](c4cnn(C5CC5)c4)C3)nc2n1 (racemic) [Example 70, 4-(4-(4-chloro-2-fluorophenyl)-7-methylpteridin-2-yl)-2-(1-cyclopropyl-1H-pyrazol-4-yl)-6-methylmorpholine] | – | < 50
16 | Cc1nc2nc(-c3ccc(Cl)cc3F)cc(C3CCO[C@@H](c4cnn(C5CC5)c4)C3)c2nc1C (stereo partly drawn) [Example 235, 6-(4-chloro-2-fluorophenyl)-8-((2R)-2-(1-cyclopropyl-1H-pyrazol-4-yl)tetrahydro-2H-pyran-4-yl)-2,3-dimethylpyrido[2,3-b]pyrazine] | – | < 50
17 | Cc1cnc2c(C34CC(C(F)(F)F)(C3)C4)nc(N3C[C@@H](C)O[C@@H](c4cnn(C5CC5)c4)C3)nc2n1 (racemic) [Example 49, 2-(1-cyclopropyl-1H-pyrazol-4-yl)-6-methyl-4-(7-methyl-4-(3-(trifluoromethyl)bicyclo[1.1.1]pentan-1-yl)pteridin-2-yl)morpholine] | – | < 50
18 | Cc1nc2nc(C3C[C@@H](C)O[C@@H](c4cn[nH]c4)C3)nc(-c3ccc(F)cc3F)c2nc1C (some centres unmarked) [Example 168] | – | 50 to 500
19 | COc1ccc(-c2nc([C@H]3CCO[C@@H](c4cnn(C5CC5)c4)C3)nc3nc(C)c(C)nc23)cn1 [Example 239, 2-((2R,4S)-2-(1-cyclopropyl-1H-pyrazol-4-yl)tetrahydro-2H-pyran-4-yl)-4-(6-methoxypyridin-3-yl)-6,7-dimethylpteridine] | – | 50 to 500
20 | COc1ccc([C@H]2C[C@@H](c3nc(-c4ccc(F)cc4F)c4nc(C)c(C)nc4n3)CCO2)cn1 [Example 163, 4-(2,4-difluorophenyl)-2-((2R,4S)-2-(6-methoxypyridin-3-yl)tetrahydro-2H-pyran-4-yl)-6,7-dimethylpteridine] | – | 50 to 500
21 | [2H]C1([2H])C[C@@H](c2nc(-c3ccc(Cl)cc3F)c3nc(C)c(C)nc3n2)C[C@@H](c2cnn(C3CC3)c2)O1 [Example 189, 4-(4-chloro-2-fluorophenyl)-2-((2S,4R)-2-(1-cyclopropyl-1H-pyrazol-4-yl)tetrahydro-2H-pyran-4-yl-6,6-d2)-6,7-dimethylpteridine] | – | 50 to 500
22 | [2H]C([2H])([2H])c1nc2nc([C@@H]3CCO[C@H](c4ccnc(C)c4)C3)nc(-c3ccc(Cl)c(F)c3F)c2nc1C([2H])([2H])[2H] [Example 136, 4-(4-chloro-2,3-difluorophenyl)-6,7-bis(methyl-d3)-2-((2S,4R)-2-(2-methylpyridin-4-yl)tetrahydro-2H-pyran-4-yl)pteridine] | – | < 50
23 | Cc1cnc2c(C34CC(C)(C3)C4)nc([C@H]3C[C@@H](C)O[C@@H](c4cnn(C5CC5)c4)C3)nc2n1 [Example 151, 2-((2R,4S,6R)-2-(1-cyclopropyl-1H-pyrazol-4-yl)-6-methyltetrahydro-2H-pyran-4-yl)-7-methyl-4-(3-methylbicyclo[1.1.1]pentan-1-yl)pteridine] | – | 500 to 3000
24 | Cc1nc2nc(-c3ccc(Cl)cc3F)cc([C@@H]3CCO[C@@H](c4cnn(C5CC5)c4)C3)c2nc1C [Example 236, 6-(4-chloro-2-fluorophenyl)-8-((2R,4R)-2-(1-cyclopropyl-1H-pyrazol-4-yl)tetrahydro-2H-pyran-4-yl)-2,3-dimethylpyrido[2,3-b]pyrazine] | – | 50 to 500
25 | Cc1cc([C@@H]2C[C@H](c3nc(-c4ccc(Cl)c(F)c4F)c4ncc(C)nc4n3)CCO2)ccn1 [Example 131, 4-(4-chloro-2,3-difluorophenyl)-7-methyl-2-((2S,4R)-2-(2-methylpyridin-4-yl)tetrahydro-2H-pyran-4-yl)pteridine] | – | 500 to 3000
26 | COc1ncccc1[C@@H]1C[C@H](c2nc(-c3ccc(F)cc3F)c3nc(C)c(C)nc3n2)CCO1 [Example 160, 4-(2,4-difluorophenyl)-2-((2S,4R)-2-(2-methoxypyridin-3-yl)tetrahydro-2H-pyran-4-yl)-6,7-dimethylpteridine] | – | 50 to 500
27 | COc1ccc([C@@H]2C[C@H](c3nc(C45CC(C(F)(F)F)(C4)C5)c4nc(C)c(C)nc4n3)CCO2)cn1 [Example 142, 2-((2S,4R)-2-(6-methoxypyridin-3-yl)tetrahydro-2H-pyran-4-yl)-6,7-dimethyl-4-(3-(trifluoromethyl)bicyclo[1.1.1]pentan-1-yl)pteridine] | – | 50 to 500
28 | Cc1cnc2c(-c3ccc(Cl)cc3F)nc([C@H]3C[C@@H](C)O[C@@H](c4cnn(C5CC5)c4)C3)nc2n1 [Example 129, 4-(4-chloro-2-fluorophenyl)-2-((2R,4S,6R)-2-(1-cyclopropyl-1H-pyrazol-4-yl)-6-methyltetrahydro-2H-pyran-4-yl)-7-methylpteridine] | – | 50 to 500
29 | Cc1nc2nc(N3CCN(C)C(c4cnn(C5CC5)c4)C3)nc(-c3ccc(Cl)cc3F)c2nc1C (centres unmarked) [Example 205, 4-(4-chloro-2-fluorophenyl)-2-(3-(1-cyclopropyl-1H-pyrazol-4-yl)-4-methylpiperazin-1-yl)-6,7-dimethylpteridine] | – | < 50
